Laboratory results published in patent publication US6914045B2, “Glycopeptide antibiotics” (Wyeth Holdings Corporation, priority 2001, dated 2005).
Converted amounts (≈) assume the structure as drawn.

Assays:
Assay in all cases: in vitro antibacterial evaluation, MIC by broth dilution
Format in all cases: cell-based
[1] = test system: Escherichia coli; details: 18 hours at 35° C.
[2] = test system: Staphylococcus sp.; details: broth dilution, 18 hours at 35° C.; for MIC Staphylococcus aureus (GC 1131): strain GC 1131; for MIC Staphylococcus aureus (ATCC 29213): strain ATCC 29213; for MIC Staphylococcus aureus (GC 3051): strain GC 3051; for MIC Staphylococcus aureus (GC 3053): strain GC 3053; for MIC Staphylococcus aureus (GC 4541): strain GC 4541; for MIC Staphylococcus aureus (GC 4542): strain GC 4542; for MIC Staphylococcus aureus-SMITH (GC 4543): strain GC 4543; for MIC Staphylococcus aureus (GC 4544): strain GC 4544; for MIC Staphylococcus aureus (GC 4545): strain GC 4545; for MIC Staphylococcus haemolyticus (GC 4546): strain GC 4546; for MIC Coagulase Negative Staphylococcus (GC 4547): strain GC 4547; for MIC Coagulase Negative Staphylococcus (GC 4548): strain GC 4548; for MIC Coagulase Negative Staphylococcus (GC 4549): strain GC 4549; for MIC Coagulase Negative Staphylococcus (GC 4551): strain GC 4551; for MIC Coagulase Negative Staphylococcus (GC 6257): strain GC 6257
In short: (§1)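 Step 1: dilute antibiotic across 64-0.06 μg/mL in Muller-Hinton II […]. Step 2: inoculate at 5×10^5 CFU/mL.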

[3] = test system: Enterococcus sp.; details: broth dilution, 18 hours at 35° C.
In short: as §1

[4] = test system: Streptococcus sp.; details: broth dilution, 18 hours at 35° C.
In short: as §1

[5] = inoculum 5×10^5 CFU/mL, strain ATCC 29212
[6] = inoculum 5×10^5 CFU/mL, strain GC 2242
[7] = inoculum 5×10^5 CFU/mL, strain GC 2243
[8] = inoculum 5×10^5 CFU/mL, strain GC 2691
[9] = inoculum 5×10^5 CFU/mL, strain GC 3059
[10] = inoculum 5×10^5 CFU/mL, strain GC 4552
[11] = inoculum 5×10^5 CFU/mL, strain GC 4553
[12] = inoculum 5×10^5 CFU/mL, strain GC 4554
[13] = inoculum 5×10^5 CFU/mL, strain GC 4556
[14] = inoculum 5×10^5 CFU/mL, strain GC 4557
[15] = inoculum 5×10^5 CFU/mL, strain GC 4558
[16] = inoculum 5×10^5 CFU/mL, strain GC 6189
[17] = inoculum 5×10^5 CFU/mL, strain ATCC 6301
[18] = inoculum 5×10^5 CFU/mL, strain GC 1894
[19] = inoculum 5×10^5 CFU/mL, strain GC 4563
[20] = inoculum 5×10^5 CFU/mL, strain GC 4564
[21] = inoculum 5×10^5 CFU/mL, strain GC 4565

`CC(C)=CCCC(C)=CCCC(C)=CCOc1cccc(C2OCC3OC(OC4C(CO)OC(Oc5ccc(CC6NC(=O)C(C(C)c7ccccc7)NC(=O)CNC(=O)C(CO)NC(=O)C(C(O)C7CNC(=N)N7C7OC(CO)C(O)C(O)C7O)NC(=O)C(C(O)C7CNC(=N)N7)NC6=O)cc5)C(O)C4O)C(O)C(O)C3O2)c1` (stereo not drawn) [Example 185] was tested, and the “MIC Escherichia coli (ATCC 25922)” value [1] was over 64 µg/mL, the “MIC Escherichia coli (GC 4559)” value [1] was over 64 µg/mL and the “MIC Escherichia coli (GC 4560)” value [1] was over 64 µg/mL. For the same compound, the “MIC Staphylococcus aureus (GC 1131)” value ([2]; inoculum 5×10^5 CFU/mL) was over 64 µg/mL, the “MIC Staphylococcus aureus (ATCC 29213)” value [2] was over 64 µg/mL and the “MIC Staphylococcus aureus (GC 1131)” value [2] was over 64 µg/mL. For the same compound, the “MIC Staphylococcus aureus (GC 3051)” value [2] was over 64 µg/mL, the “MIC Staphylococcus aureus (GC 3053)” value [2] was over 64 µg/mL and the “MIC Staphylococcus aureus (GC 4541)” value [2] was over 64 µg/mL. The “MIC Staphylococcus aureus (GC 4542)” value [2] was over 64 µg/mL, the “MIC Staphylococcus aureus-SMITH (GC 4543)” value [2] was over 64 µg/mL and the “MIC Staphylococcus aureus (GC 4544)” value [2] was over 64 µg/mL. For the same compound, the “MIC Staphylococcus aureus (GC 4545)” value [2] was over 64 µg/mL, the “MIC Staphylococcus haemolyticus (GC 4546)” value [2] was over 64 µg/mL and the “MIC Coagulase Negative Staphylococcus (GC 4547)” value [2] was over 64 µg/mL. For the same compound, the “MIC Coagulase Negative Staphylococcus (GC 4548)” value [2] was over 64 µg/mL, the “MIC Coagulase Negative Staphylococcus (GC 4549)” value [2] was over 64 µg/mL and the “MIC Coagulase Negative Staphylococcus (GC 4551)” value [2] was over 64 µg/mL. For the same compound, the “MIC Coagulase Negative Staphylococcus (GC 6257)” value [2] was over 64 µg/mL, the “MIC Enterococcus avium (GC 4558)” value [3] was 64 µg/mL (≈ 39.9 µM) and the “MIC Enterococcus faecalis (ATCC 29212)” value [3] was over 64 µg/mL. For the same compound, the “MIC Enterococcus faecalis (GC 2242)” value [3] was over 64 µg/mL, the “MIC Enterococcus faecalis (GC 2691)” value [3] was over 64 µg/mL and the “MIC Enterococcus faecalis (GC 3059)” value [3] was over 64 µg/mL. The “MIC Enterococcus faecalis (GC 4552)” value [3] was over 64 µg/mL, the “MIC Enterococcus faecalis (GC 4553)” value [3] was 32 µg/mL (≈ 20 µM) and the “MIC Enterococcus faecalis (GC 4554)” value [3] was over 64 µg/mL. For the same compound, the “MIC Enterococcus faecalis (GC 6189)” value [3] was over 64 µg/mL, the “MIC Enterococcus faecium (GC 2243)” value [3] was 32 µg/mL (≈ 20 µM) and the “MIC Enterococcus faecium (GC 4556)” value [3] was over 64 µg/mL. For the same compound, the “MIC Enterococcus faecium (GC 4557)” value [3] was over 64 µg/mL, the “MIC Enterococcus faecalis (ATCC 29212)” value [3, 5] was over 64 µg/mL and the “MIC Enterococcus faecalis (GC 2242)” value [3, 6] was over 64 µg/mL. The “MIC Enterococcus faecium (GC 2243)” value [3, 7] was 32 µg/mL (≈ 20 µM), the “MIC Enterococcus faecalis (GC 2691)” value [3, 8] was over 64 µg/mL and the “MIC Enterococcus faecalis (GC 3059)” value [3, 9] was over 64 µg/mL. The “MIC Enterococcus faecalis (GC 4552)” value [3, 10] was over 64 µg/mL, the “MIC Enterococcus faecalis (GC 4553)” value [3, 11] was 32 µg/mL (≈ 20 µM) and the “MIC Enterococcus faecalis (GC 4554)” value [3, 12] was over 64 µg/mL. For the same compound, the “MIC Enterococcus faecium (GC 4556)” value [3, 13] was over 64 µg/mL, the “MIC Enterococcus faecium (GC 4557)” value [3, 14] was over 64 µg/mL and the “MIC Enterococcus avium (GC 4558)” value [3, 15] was 64 µg/mL (≈ 39.9 µM). The “MIC Enterococcus faecalis (GC 6189)” value [3, 16] was over 64 µg/mL, the “MIC Streptococcus agalactiae (GC 4564)” value [4] was 1 µg/mL (≈ 0.624 µM) and the “MIC Streptococcus pneumoniae (ATCC 6301)” value [4] was 0.12 µg/mL (≈ 0.0748 µM). The “MIC Streptococcus pneumoniae (GC 1894)” value [4] was under 0.06 µg/mL, the “MIC Streptococcus pneumoniae (GC 4565)” value [4] was under 0.06 µg/mL and the “MIC Streptococcus pyogenes (GC 4563)” value [4] was 16 µg/mL (≈ 9.98 µM). For the same compound, the “MIC Streptococcus pneumoniae (ATCC 6301)” value [4, 17] was 0.12 µg/mL (≈ 0.0748 µM), the “MIC Streptococcus pneumoniae (GC 1894)” value [4, 18] was under 0.06 µg/mL and the “MIC Streptococcus pyogenes (GC 4563)” value [4, 19] was 16 µg/mL (≈ 9.98 µM). For the same compound, the “MIC Streptococcus agalactiae (GC 4564)” value [4, 20] was 1 µg/mL (≈ 0.624 µM) and the “MIC Streptococcus pneumoniae (GC 4565)” value [4, 21] was under 0.06 µg/mL.
For `CC(C)CC(=O)OC1C(O)C(OC2C(CO)OC(Oc3ccc(CC4NC(=O)C(C(C)c5ccccc5)NC(=O)CNC(=O)C(CO)NC(=O)C(C(O)C5CNC(=N)N5C5OC(CO)C(O)C(O)C5O)NC(=O)C(C(O)C5CNC(=N)N5)NC4=O)cc3)C(O)C2O)OC2COC3(OC21)C1CC2CC(C1)CC3C2` (stereo not drawn) [Example 218], the “MIC Escherichia coli (ATCC 25922)” value [1] was 64 µg/mL (≈ 42.3 µM), the “MIC Escherichia coli (GC 4559)” value [1] was over 64 µg/mL and the “MIC Escherichia coli (GC 4560)” value [1] was 8 µg/mL (≈ 5.29 µM). For the same compound, the “MIC Staphylococcus aureus (ATCC 29213)” value [2] was 4 µg/mL (≈ 2.65 µM), the “MIC Staphylococcus aureus (GC 1131)” value [2] was 4 µg/mL (≈ 2.65 µM) and the “MIC Staphylococcus aureus (GC 3051)” value [2] was 4 µg/mL (≈ 2.65 µM). The “MIC Staphylococcus aureus (GC 3053)” value [2] was 4 µg/mL (≈ 2.65 µM), the “MIC Staphylococcus aureus (GC 4541)” value [2] was 4 µg/mL (≈ 2.65 µM) and the “MIC Staphylococcus aureus (GC 4542)” value [2] was 4 µg/mL (≈ 2.65 µM). The “MIC Staphylococcus aureus-SMITH (GC 4543)” value [2] was 4 µg/mL (≈ 2.65 µM), the “MIC Staphylococcus aureus (GC 4544)” value [2] was 4 µg/mL (≈ 2.65 µM) and the “MIC Staphylococcus aureus (GC 4545)” value [2] was 4 µg/mL (≈ 2.65 µM). For the same compound, the “MIC Staphylococcus haemolyticus (GC 4546)” value [2] was 4 µg/mL (≈ 2.65 µM), the “MIC Coagulase Negative Staphylococcus (GC 4547)” value [2] was 4 µg/mL (≈ 2.65 µM) and the “MIC Coagulase Negative Staphylococcus (GC 4548)” value [2] was 4 µg/mL (≈ 2.65 µM). For the same compound, the “MIC Coagulase Negative Staphylococcus (GC 4549)” value [2] was 4 µg/mL (≈ 2.65 µM), the “MIC Coagulase Negative Staphylococcus (GC 4551)” value [2] was 8 µg/mL (≈ 5.29 µM) and the “MIC Coagulase Negative Staphylococcus (GC 6257)” value [2] was 4 µg/mL (≈ 2.65 µM). For the same compound, the “MIC Enterococcus avium (GC 4558)” value [3] was 4 µg/mL (≈ 2.65 µM), the “MIC Enterococcus faecalis (ATCC 29212)” value [3] was 4 µg/mL (≈ 2.65 µM) and the “MIC Enterococcus faecalis (GC 2242)” value [3] was 4 µg/mL (≈ 2.65 µM). For the same compound, the “MIC Enterococcus faecalis (GC 2691)” value [3] was 4 µg/mL (≈ 2.65 µM), the “MIC Enterococcus faecalis (GC 3059)” value [3] was 4 µg/mL (≈ 2.65 µM) and the “MIC Enterococcus faecalis (GC 4552)” value [3] was 4 µg/mL (≈ 2.65 µM). For the same compound, the “MIC Enterococcus faecalis (GC 4553)” value [3] was 4 µg/mL (≈ 2.65 µM), the “MIC Enterococcus faecalis (GC 4554)” value [3] was 4 µg/mL (≈ 2.65 µM) and the “MIC Enterococcus faecalis (GC 6189)” value [3] was 4 µg/mL (≈ 2.65 µM). For the same compound, the “MIC Enterococcus faecium (GC 2243)” value [3] was 4 µg/mL (≈ 2.65 µM), the “MIC Enterococcus faecium (GC 4556)” value [3] was 4 µg/mL (≈ 2.65 µM) and the “MIC Enterococcus faecium (GC 4557)” value [3] was 4 µg/mL (≈ 2.65 µM). For the same compound, the “MIC Enterococcus faecalis (ATCC 29212)” value [3, 5] was 4 µg/mL (≈ 2.65 µM), the “MIC Enterococcus faecalis (GC 2242)” value [3, 6] was 4 µg/mL (≈ 2.65 µM) and the “MIC Enterococcus faecium (GC 2243)” value [3, 7] was 4 µg/mL (≈ 2.65 µM). The “MIC Enterococcus faecalis (GC 2691)” value [3, 8] was 4 µg/mL (≈ 2.65 µM), the “MIC Enterococcus faecalis (GC 3059)” value [3, 9] was 4 µg/mL (≈ 2.65 µM) and the “MIC Enterococcus faecalis (GC 4552)” value [3, 10] was 4 µg/mL (≈ 2.65 µM). The “MIC Enterococcus faecalis (GC 4553)” value [3, 11] was 4 µg/mL (≈ 2.65 µM), the “MIC Enterococcus faecalis (GC 4554)” value [3, 12] was 4 µg/mL (≈ 2.65 µM) and the “MIC Enterococcus faecium (GC 4556)” value [3, 13] was 4 µg/mL (≈ 2.65 µM). The “MIC Enterococcus faecium (GC 4557)” value [3, 14] was 4 µg/mL (≈ 2.65 µM), the “MIC Enterococcus avium (GC 4558)” value [3, 15] was 4 µg/mL (≈ 2.65 µM) and the “MIC Enterococcus faecalis (GC 6189)” value [3, 16] was 4 µg/mL (≈ 2.65 µM). For the same compound, the “MIC Streptococcus agalactiae (GC 4564)” value [4] was 0.25 µg/mL (≈ 0.165 µM), the “MIC Streptococcus pneumoniae (ATCC 6301)” value [4] was 0.12 µg/mL (≈ 0.0794 µM) and the “MIC Streptococcus pneumoniae (GC 1894)” value [4] was under 0.06 µg/mL. For the same compound, the “MIC Streptococcus pneumoniae (GC 4565)” value [4] was 0.12 µg/mL (≈ 0.0794 µM), the “MIC Streptococcus pyogenes (GC 4563)” value [4] was 0.5 µg/mL (≈ 0.331 µM) and the “MIC Streptococcus pneumoniae (ATCC 6301)” value [4, 17] was 0.12 µg/mL (≈ 0.0794 µM). For the same compound, the “MIC Streptococcus pneumoniae (GC 1894)” value [4, 18] was under 0.06 µg/mL, the “MIC Streptococcus pyogenes (GC 4563)” value [4, 19] was 0.5 µg/mL (≈ 0.331 µM) and the “MIC Streptococcus agalactiae (GC 4564)” value [4, 20] was 0.25 µg/mL (≈ 0.165 µM). The “MIC Streptococcus pneumoniae (GC 4565)” value [4, 21] was 0.12 µg/mL (≈ 0.0794 µM).
